{"source": "paper PMC3083410", "about": "“A Soluble Acetylcholinesterase Provides Chemical Defense against Xenobiotics in the Pinewood Nematode” (PLoS ONE, 2011)", "key": {"BxACE-1": {"target": "T1, BxACE-1 (Bursaphelenchus xylophilus, UniProt D2JYW9)", "T1 construct": "gene AChE1; recombinant, baculovirus system", "T1 sequence (D2JYW9 entry or part of it)": "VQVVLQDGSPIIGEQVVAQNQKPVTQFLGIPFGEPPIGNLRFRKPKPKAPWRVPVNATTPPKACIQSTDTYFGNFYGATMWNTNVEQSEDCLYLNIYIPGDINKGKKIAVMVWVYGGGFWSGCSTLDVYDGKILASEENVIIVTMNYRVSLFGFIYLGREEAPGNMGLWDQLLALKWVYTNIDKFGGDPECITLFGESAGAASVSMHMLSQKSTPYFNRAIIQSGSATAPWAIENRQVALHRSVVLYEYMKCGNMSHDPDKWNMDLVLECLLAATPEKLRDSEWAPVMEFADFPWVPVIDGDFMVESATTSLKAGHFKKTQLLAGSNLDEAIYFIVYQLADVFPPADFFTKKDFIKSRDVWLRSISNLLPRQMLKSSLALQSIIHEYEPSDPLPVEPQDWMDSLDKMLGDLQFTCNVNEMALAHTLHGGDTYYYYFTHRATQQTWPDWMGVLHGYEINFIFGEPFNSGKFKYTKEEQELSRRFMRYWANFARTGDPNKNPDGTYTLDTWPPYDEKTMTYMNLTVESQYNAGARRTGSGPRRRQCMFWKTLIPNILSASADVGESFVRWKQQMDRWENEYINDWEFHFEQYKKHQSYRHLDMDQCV", "experiment": "colorimetric acetylthiocholine/DTNB assay", "assay_type": "biochemical", "conditions": "read-out: % inhibition at 2 mM"}, "BxACE-3": {"target": "T2, BxACE-3 (Bursaphelenchus xylophilus, UniProt D2JYX1)", "T2 construct": "gene AChE3; recombinant, baculovirus system", "T2 sequence (D2JYX1 entry or part of it)": "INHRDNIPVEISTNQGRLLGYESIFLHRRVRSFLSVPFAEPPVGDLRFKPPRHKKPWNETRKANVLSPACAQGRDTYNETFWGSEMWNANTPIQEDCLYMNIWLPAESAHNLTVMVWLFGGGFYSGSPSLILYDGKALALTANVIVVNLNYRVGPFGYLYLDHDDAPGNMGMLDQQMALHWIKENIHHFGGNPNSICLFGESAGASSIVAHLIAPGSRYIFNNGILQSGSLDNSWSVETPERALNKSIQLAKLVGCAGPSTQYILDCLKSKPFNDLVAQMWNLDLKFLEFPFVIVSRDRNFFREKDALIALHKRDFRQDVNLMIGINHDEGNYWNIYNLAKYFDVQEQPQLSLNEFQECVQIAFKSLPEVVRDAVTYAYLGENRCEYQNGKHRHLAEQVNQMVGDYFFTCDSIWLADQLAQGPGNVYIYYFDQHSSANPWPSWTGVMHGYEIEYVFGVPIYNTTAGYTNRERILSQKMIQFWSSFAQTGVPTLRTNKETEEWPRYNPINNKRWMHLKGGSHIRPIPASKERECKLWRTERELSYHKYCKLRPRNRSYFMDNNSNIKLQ", "experiment": "colorimetric acetylthiocholine/DTNB assay", "assay_type": "biochemical", "conditions": "read-out: % inhibition at 2 mM"}}}
{"smiles": "CC1=CCC2CC1C2(C)C", "note": "(stereo not drawn) [α-pinene]", "values": [{"measurement": "inhibition at 2000 µM", "setting": "BxACE-1", "result": "~25", "unit": "%"}, {"measurement": "inhibition at 2000 µM", "setting": "BxACE-3", "result": "~10", "unit": "%"}]}
{"smiles": "C=C(C)C1CC=C(C)CC1", "note": "(stereo not drawn) [limonene]", "values": [{"measurement": "inhibition at 2000 µM", "setting": "BxACE-3", "result": "~10", "unit": "%"}]}
